Several values for one entry are separate records, joined by “and”; a condition that tells them apart may be missing. Equal values may be shown once. Read-outs that look alike come from different tables or passages of the source.
What was measured:
[1] = target: T1, rNTS1 receptor (Rattus norvegicus, UniProt P20789); experiment: 125I-NT competitive binding assay, whole CHO-kl cells over-expressing rNTS1; conditions: competition with 125I-NT, read-out: NTS1 Ki
T1 construct: expressed in transfected cells
T1 sequence (P20789 whole entry): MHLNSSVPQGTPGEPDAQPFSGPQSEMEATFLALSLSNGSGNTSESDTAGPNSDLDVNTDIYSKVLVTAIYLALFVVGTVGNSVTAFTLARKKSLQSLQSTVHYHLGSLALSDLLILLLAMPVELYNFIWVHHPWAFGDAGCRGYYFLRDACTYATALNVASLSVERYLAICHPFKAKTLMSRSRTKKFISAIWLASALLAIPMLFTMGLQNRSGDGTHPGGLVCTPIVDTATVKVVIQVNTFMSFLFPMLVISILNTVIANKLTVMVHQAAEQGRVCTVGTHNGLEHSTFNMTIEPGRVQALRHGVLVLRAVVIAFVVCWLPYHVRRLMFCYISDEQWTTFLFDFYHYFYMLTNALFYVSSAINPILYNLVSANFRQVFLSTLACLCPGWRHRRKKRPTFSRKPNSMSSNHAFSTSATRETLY
Method: (§1) The binding affinities of the test compounds for the rNTS1 and rNTS2 receptors listed in Tables 1 through 4 were determined using previously reported competitive binding assays^49. The NTS1 and 2 receptors were labeled using ^125I-NT. The cells used in the binding assay were CHO-kl cells (American Type Culture Collection) engineered to over-express either the rNTS1 or rNTS2 receptor. Measures of functional agonism and antagonism were obtained by measuring changes in intensity of a calcium-sensitive fluorescent dye as an indirect measure of changes in internal calcium concentrations. These measurements were performed using a FLIPR Tetra (NTS2) or a FlexStation II plate reader for NTS1 (Molecular Devices) and were analyzed using GraphPad Prism software. Antagonism was measured as inhibition of NT-induced calcium release (NTS1) or inhibition of SR142948 (5b)-induced calcium release (NTS2).
Briefly, cells were plated at 100,000 cells/well in 24-well plates in complete DMEM/F12 medium supplemented with 10% fetal bovine serum, 100 units of penicillin/mL, 100 μg of streptomycin/mL, 0.1 mg/mL of normocin, and 250 μg/mL geneticin. Cells were incubated at 37° C. with 5% CO2 and 95% humidity for 48 hrs. Cells were then equilibrated for 10 minutes in Earle's buffer (130 mM NaCl, 5 mM KCl, 1.8 mM CaCl2, 0.8 mM MgCl2, and 20 mM HEPES, pH 7.4) supplemented with 0.1% BSA and 0.1% glucose, and then incubated with or without 10 nM test compound in 0.1 nM ^125I-NT at 37° C. for 30 min. Cells were washed twice in Earle's buffer, extracted in 1 ml 0.1N NaOH and counted in a Packard Cobra II Gamma Counter for 1 minute.
(§2) To determine EC50, IC50, and Ke values, data were fit to a three-parameter logistic equation using GraphPad Prism software. Ki values for radioligand binding assays were determined from ICso values using the equation of Cheng and Prusoff. All data are from at least three independent experiments run in duplicate wells.

[2] = target: T2, rNTS2 receptor (Rattus norvegicus, UniProt Q63384); experiment: 125I-NT competitive binding assay, whole CHO-kl cells over-expressing rNTS2; conditions: for Ki: competition with 125I-NT, ± SEM, read-out: 125I-NT Binding NTS2 Ki; for NTS2/NTS1 selectivity ratio: ratio of 125I-NT binding Ki at NTS1 and NTS2; for selectivity for NTS2 (versus NTS1): relative binding affinities at NTS1 and NTS2
T2 construct: expressed in transfected cells
T2 sequence (Q63384 1-416): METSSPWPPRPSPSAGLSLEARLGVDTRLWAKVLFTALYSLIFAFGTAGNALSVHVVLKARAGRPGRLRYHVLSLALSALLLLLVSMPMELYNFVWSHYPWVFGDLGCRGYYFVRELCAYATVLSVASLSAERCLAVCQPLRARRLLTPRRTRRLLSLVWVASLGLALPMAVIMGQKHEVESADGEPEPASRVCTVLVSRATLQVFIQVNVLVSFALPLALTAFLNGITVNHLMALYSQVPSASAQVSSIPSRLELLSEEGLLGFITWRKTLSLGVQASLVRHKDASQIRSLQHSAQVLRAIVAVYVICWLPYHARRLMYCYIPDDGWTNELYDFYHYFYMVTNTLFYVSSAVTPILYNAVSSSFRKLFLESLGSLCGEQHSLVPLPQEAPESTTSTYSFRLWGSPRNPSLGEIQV
Method: as §1, with “The NTS1 and 2 receptors were labeled using ^125I-NT.” left out, “software.” for “software. Antagonism was measured as inhibition of NT-induced calcium release (NTS1) or inhibition of SR142948 (5b)-induced calcium release (NTS2).”
Briefly, cells were plated at 100,000 cells/well in 24-well plates in complete DMEM/F12 medium supplemented with 10% fetal bovine serum, 100 units of penicillin/mL, 100 μg of streptomycin/mL, 0.1 mg/mL of normocin, and 250 μg/mL geneticin. Cells were incubated at 37° C. with 5% CO2 and 95% humidity for 48 hrs. […] Cells were washed twice in Earle's buffer, extracted in 1 ml 0.1N NaOH and counted in a Packard Cobra II Gamma Counter for 1 minute.
as §2

[3] = target: T2, rNTS2 receptor; experiment: Calcium mobilization assay for NTS2 receptor (FLIPR Tetra); type: cell-based; conditions: FLIPR assay, ± SEM; for NTS2 Emax % of 5b: calcium release relative to 5b; for EC50: compound induced calcium release, CHO-kl-rNTS2 cells
Method: as §1, with “The NTS1 and 2 receptors were labeled using ^125I-NT.” left out, “software.” for “software. Antagonism was measured as inhibition of NT-induced calcium release (NTS1) or inhibition of SR142948 (5b)-induced calcium release (NTS2).”
CHO-kl-rNTS2 cells were maintained in DMEM/F12 supplemented with 10% FBS, pen/strep, 100 μg/ml normocin, and 400 μg/ml geneticin. For calcium mobilization assays, cells were plated at 25,000 cells/well in black, clear-bottom 96-well plates 24 hrs before the assay and incubated at 37° C., 5% CO2. 100 μl reconstituted Calcium 5 dye (Molecular Devices, diluted 1:20 in assay buffer (1×HBSS, 20 mM HEPES, 2.5 mM Probenicid, pH 7.4)) was added per well and plates were incubated for 45 min at 37° C., 5% CO2. […] Full-log serial dilutions of the test compounds were made at 10× the desired final concentration in 1% DMSO assay buffer and warmed to 37° C. After the pre-treatment incubation, fluorescence intensity was measured on a FLIPR Tetra fluorometric imaging plate reader (Molecular Devices). Relative Fluorescence Units (RFUs) were measured every second for 100 seconds (14 readings before compound addition to establish baseline fluorescence, 85 after) Exposure time 0.53 s, Gain=2000, Excitation intensity=30%, Gate open=10%. For antagonist assays, 1/10 volume of 10×concentration of the test compound dilutions in 10% DMSO in assay buffer was added to cells in lieu of the 10% DMSO only in assay buffer for the pre-treatment.
as §2

[4] = target: T1, rNTS1 receptor; experiment: Calcium mobilization assay for NTS1 receptor (FLIPR assay, FlexStation II); type: cell-based; conditions: for Kb: antagonism of NT induced calcium release, ± SEM, read-out: NTS1 Ke
Method: as §1, with “The NTS1 and 2 receptors were labeled using ^125I-NT.” left out, “software.” for “software. Antagonism was measured as inhibition of NT-induced calcium release (NTS1) or inhibition of SR142948 (5b)-induced calcium release (NTS2).”
CHO-kl-rNTS1 cells were maintained in DMEM/F12 medium supplemented with 10% fetal bovine serum (Gibco), 100 U/ml penicillin/100 ug/ml streptomycin, 100 ug/ml normocin (Invivogen), and 250 ug/ml geneticin. For calcium mobilization assays, cells were plated at 30,000 cells/well in black, clear-bottom 96-well plates 24 hrs before the assay and incubated at 37° C., 5% CO2. Prior to the assay, Calcium 5 dye (Molecular Devices) was reconstituted according to manufacturer instructions. The reconstituted dye was diluted 1:40 in assay buffer (lx HBSS, 20 mM HEPES, and 2.5 mM Probenicid (Sigma), pH 7.4). Growth media was removed and 200 ul of this diluted dye was added to each well. Plates were incubated for 45 min at 37° C., 5% CO2 after dye addition. […] Full-log serial dilutions of the test compounds were made at 10× the desired final concentration in 1% DMSO assay buffer and warmed to 37° C. After the pre-treatment incubation, fluorescence intensity was measured on a FlexStation II fluorometric imaging plate reader (Molecular Devices). Relative fluorescence units (RFU) were measured before (20 readings) and after (40 readings) the agonist compound addition for a total 60 second read time (Excitation=485 nm, Emission=525 nm, cutoff=515 nm). For antagonist assays, cells were treated with Calcium dye for 45 min at 37° C., 5% CO2 as with the agonist assays. Then the test antagonist compounds were added in 1% DMSO in assay buffer and the plate was incubated for 15 min at 37° C., 5% CO2.
as §2

[5] = system: NTS2 versus NTS1; conditions: literature report; cited from earlier work
[6] = literature report; cited from earlier work

Row | Compound | Ki [2] [nM] | NTS2 Emax % of 5b [3] | EC50 [3] [nM] | Kb [4] [nM] | other results
1 | COc1ccccc1-c1cc(C(=O)NC2(C(=O)O)CCCCC2)nn1-c1ccc(F)cc1 [7b, 1-({[1-(4-Fluorophenyl)-5-(2-methoxyphenyl)-1H-pyrazol-3-yl]carbonyl}amino)cyclo-hexane carboxylic Acid] | 153 ± 10 | 7 ± 2 % of 5b | 12 ± 6 |  | Ki ([1]; bound given in uM): > 25 µM; NTS2/NTS1 selectivity ratio [2]: 161; selectivity for NTS2 (versus NTS1) [2]: 161 fold
2 | COc1ccccc1-c1cc(C(=O)N[C@H](C(=O)O)C2CCCCC2)nn1-c1cccc2ccccc12 [25b, (2S)-Cyclohexyl({[5-(2-methoxyphenyl)-1-naphthalen-1-yl-1H-pyrazol-3-yl]carbonyl}amino) ethanoic Acid] | 2690 ± 639 | 18 ± 2 % of 5b | 229 ± 8 | 1400 ± 330 | 
3 | COc1cccc(OC)c1-c1cc(C(=O)NC2(C(=O)O)CCCCC2)nn1-c1cccc2ccccc12 [26b, 1-({[5-(2,6-Dimethoxyphenyl)-1-naphthalen-1-yl-1H-pyrazol-3-yl]carbonyl}amino)cyclohexane-carboxylic Acid] | 116 ± 39 | 35 % of 5b and 35 ± 1 % of 5b | 18 ± 1.6 | 230 ± 79 | 
4 | COc1ccccc1-c1cc(C(=O)NC2(C(=O)O)CCCCC2)nn1-c1cccc2ccccc12 [27b, 1-({[5-(2-Methoxyphenyl)-1-naphthalen-1-yl-1H-pyrazol-3-yl]carbonyl}amino)cyclohexane-carboxylic Acid] | 694 ± 178 | 18 % of 5b and 18 ± 2 % of 5b | 108 ± 8 | 7380 ± 1130 | 
5 | COc1cccc(OC)c1-c1cc(C(=O)N[C@H](C(=O)O)C2CCCCC2)nn1-c1ccc(F)cc1 [28b, (2S)-Cyclohexyl({[5-(2,6-dimethoxyphenyl)-1-(4-fluorophenyl)-1H-pyrazol-3-yl]carbonyl}amino)ethanoic Acid] | 622 ± 245 | 22 ± 5 % of 5b | 271 ± 24 | 3340 ± 549 | 
6 | COc1cccc(OC)c1-c1cc(C(=O)NC2(C(=O)O)CCCCC2)nn1-c1ccc(F)cc1 [29b, 1-({[5-(2,6-Dimethoxyphenyl)-1-(4-fluorophenyl)-1H-pyrazol-3-yl]carbonyl}amino)cyclohexane-carboxylic Acid] | 140 ± 29 | 12 ± 0.5 % of 5b | 19 ± 3 |  | Ki ([1]; ± SEM): 3.21 ± 0.879 µM; NTS2/NTS1 selectivity ratio [2]: 23; selectivity for NTS2 (versus NTS1) [2]: 23 fold
7 | C[C@@H]1CN([C@H]2CC[C@](C#N)(c3ccc(F)cc3)CC2)CC[C@]1(C(=O)O)c1ccccc1 [compound 6, Levocabastine, reference compound] | 33 | 16 % of 5b and 16 ± 3 % of 5b | 28 |  | activity in NTS1 FLIPR assay ([4]; agonist and antagonist mode versus NT): neither agonist nor antagonist activity
8 | COc1cccc(OC)c1-c1cc(C(=O)NC2(C(=O)O)C3CC4CC(C3)CC2C4)nn1-c1ccc(F)cc1 (stereo not shown) [compound 30, 2-({[5-(2,6-Dimethoxyphenyl)-1-(4-fluorophenyl)-1H-pyrazol-3-yl]carbonyl}amino) tricyclo[3.3.1.13,7]decane-2-carboxylic Acid] | 110 ± 29 | 34 % of 5b and 34 ± 5 % of 5b | 68 | 191 ± 47 | 
9 | COc1ccccc1-c1cc(C(=O)NC2(C(=O)O)C3CC4CC(C3)CC2C4)nn1-c1ccc(F)cc1 (stereo not shown) [compound 31, 2-({[1-(4-fluorophenyl)-5-(2-methoxyphenyl)-1H-pyrazol-3-yl]carbonyl}amino)tricyclo[3.3.1.13,7]decane-2-carboxylic acid] | 23 ± 5 | 42 ± 12 % of 5b | 138 ± 55 | 3810 ± 422 | Ki ([1]; ± SEM): 4.33 ± 0.656 µM; NTS2/NTS1 selectivity ratio [2]: 188
10 | (N^αMe)Arg-Lys-Pro-D-3,1-Nal-tLeu-Leu [compound 3] |  |  |  |  | selectivity for NTS2 (versus NTS1) [5]: > 100 fold
11 | (N^αMe)Arg-Lys-Pro-N-homo-Tyr-Ile-Leu [4b] |  |  |  |  | selectivity for NTS2 (versus NTS1) [5]: 22,000 fold; plasma stability [6]: excellent plasma stability
12 | Arg-Arg-Pro-N-homo-Tyr-Ile-Leu [4a] |  |  |  |  | selectivity for NTS2 (versus NTS1) [5]: 12,000 fold
